Data: PubChem BioAssay (NCI)
“And” between values parts separate entries of the source, which are not always exact repeats. Equal entries are not always repeated.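 Where inhibition never reached the appropriate level, the endpoint shown equals the highest concentration tested. Otherwise, values were interpolated linearly from a five-concentration, 48-hour dose response in 96-well plates. Here, GI50 denotes the concentration required for 50% inhibition of growth. TGI: total growth inhibition.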

How the values were obtained:
Assay in all cases: NCI-60 cell line screen, 48 h
ACHN renal = system: ACHN renal
HOP-92 NSCLC = system: HOP-92 NSCLC
SK-MEL-28 melanoma = system: SK-MEL-28 melanoma
HOP-62 NSCLC = system: HOP-62 NSCLC
M14 melanoma = system: M14 melanoma
HCC-2998 colon = system: HCC-2998 colon
SK-MEL-2 melanoma = system: SK-MEL-2 melanoma
HCT-116 colon = system: HCT-116 colon
U251 CNS = system: U251 CNS
OVCAR-3 ovarian = system: OVCAR-3 ovarian

| Compound | TGI (ACHN renal) | TGI (HOP-92 NSCLC) | TGI (SK-MEL-28 melanoma) | TGI (HOP-62 NSCLC) | TGI (M14 melanoma) | TGI (HCC-2998 colon) | TGI (SK-MEL-2 melanoma) | TGI (HCT-116 colon) | TGI (U251 CNS) | TGI (OVCAR-3 ovarian) | GI50 (ACHN renal) | GI50 (HOP-92 NSCLC) | GI50 (SK-MEL-28 melanoma) | GI50 (HOP-62 NSCLC) | GI50 (M14 melanoma) | GI50 (HCC-2998 colon) | GI50 (SK-MEL-2 melanoma) | GI50 (HCT-116 colon) | GI50 (U251 CNS) | GI50 (OVCAR-3 ovarian) |
| --- | --- | --- | --- | --- | --- | --- | --- | --- | --- | --- | --- | --- | --- | --- | --- | --- | --- | --- | --- | --- |
| O=C1c2cccc3cc([N+](=O)[O-])cc(c23)C(=O)N1NC1=NCCN1 | > 100 µM | > 100 µM | > 100 µM | > 100 µM | > 100 µM | > 100 µM | > 100 µM | > 100 µM | > 100 µM | > 100 µM | – | – | – | – | – | – | – | – | – | – |
| CCCCN(CCCC)c1ccc(C(=N)c2ccc(N(C)C)cc2)cc1 | 2.38 µM | 1.78 µM | 2.6 µM | 2.69 µM | 2.25 µM | 1.62 µM | 2.24 µM | 1.22 µM | 1.42 µM | 1.6 µM | 1.04 µM | 0.362 µM | 1.31 µM | 1.33 µM | 0.908 µM | 0.429 µM | 0.829 µM | 0.307 µM | 0.46 µM | 0.448 µM |
| Cc1cc(Cc2cc(C)c(O)c(C)c2)cc(C)c1O | > 100 µM | 29.4 µM | 66.5 µM | 89.6 µM | 13.2 µM | 82.1 µM | 11 µM | 15.2 µM | 19.6 µM | 10.5 µM | 12.1 µM | 4.35 µM | 11.4 µM | 7.01 µM | 3 µM | 16.3 µM | 3.65 µM | 4.12 µM | 3.68 µM | 3.43 µM |
| CCCN(CCCN)/[N+]([O-])=N\O | > 100 µM | > 100 µM | > 100 µM | > 100 µM | > 100 µM | > 100 µM | > 100 µM | > 100 µM | > 100 µM | > 100 µM | – | – | – | – | – | – | – | – | – | – |
| COC(=O)C1CC(=O)CCC1c1ccccc1 (stereo not drawn) | > 100 µM | > 100 µM | > 100 µM | > 100 µM | > 100 µM | > 100 µM | > 100 µM | > 100 µM | > 100 µM | > 100 µM | – | – | – | – | – | – | – | – | – | – |
| CC(=O)Nc1ccc(-c2c3nc(c(-c4cc5ccccc5[n+](C)c4)c4ccc([nH]4)c(-c4ccc(NC(C)=O)cc4)c4nc(c(-c5cc6ccccc6[n+](C)c5)c5ccc2[nH]5)C=C4)C=C3)cc1 | 26.6 µM | > 50 µM | 29.2 µM | 19.5 µM | > 50 µM | > 50 µM | > 50 µM | > 50 µM | > 50 µM | 12.9 µM | 10.3 µM | 23.9 µM | 10.5 µM | 7.3 µM | 28.6 µM | > 50 µM | 15 µM | 22 µM | 13.5 µM | 2.37 µM |
| Cc1cc(=O)oc2c(CN3CCCCC3)c(O)ccc12 | > 100 µM | > 100 µM | > 100 µM | > 100 µM | > 100 µM | > 100 µM | > 100 µM | > 100 µM | > 100 µM | > 100 µM | – | – | – | – | – | – | – | – | – | – |
| Cc1ccc(NC(=O)CC/C(CC(=O)C(C)(C)C)=N/NC(=O)C(N)=O)cc1C | > 100 µM | > 100 µM | > 100 µM | > 100 µM | > 100 µM | > 100 µM | > 100 µM | > 100 µM | > 100 µM | > 100 µM | – | – | – | – | – | – | – | – | – | – |
| CCC1=C(C)/C(=C/c2[nH]c(C(Br)Br)c(CC)c2C)N=C1C(Br)Br | > 100 µM | > 100 µM | > 100 µM | > 100 µM | > 100 µM | 52.9 µM | > 100 µM | > 100 µM | 86.4 µM | > 100 µM | – | – | – | – | – | – | – | – | – | – |
| CC1=CC[C@@H]2C(C)(C)C(=O)CC[C@@]2(C)[C@@H]1COc1ccc2ccc(=O)oc2c1 | 79.9 µM | > 100 µM | 45.2 µM | 85.1 µM | 32.7 µM | > 100 µM | 42.3 µM | > 100 µM | > 100 µM | 56.9 µM | 15.3 µM | 27.4 µM | 16.7 µM | 22.3 µM | 12.9 µM | 30.3 µM | 11.5 µM | 16.4 µM | 27.6 µM | 10.1 µM |
| NC(N)=NS(=O)(=O)c1ccc(Nc2c3ccccc3nc3c(C(=O)N4CCN(CCO)CC4)cccc23)cc1 | > 100 µM | > 100 µM | > 100 µM | > 100 µM | > 100 µM | > 100 µM | > 100 µM | > 100 µM | > 100 µM | > 100 µM | – | – | – | – | – | – | – | – | – | – |
| Cc1nc2ccccc2c(=O)n1/N=C(\N=Nc1cc(Cl)ccc1Cl)c1cccc(-c2ccco2)c1 | > 100 µM | 99.5 µM | > 100 µM | > 100 µM | > 100 µM | > 100 µM | > 100 µM | > 100 µM | > 100 µM | > 100 µM | – | – | – | – | – | – | – | – | – | – |
| COc1ccc2c(c1)[C@]1(C[C@H]1c1ccc3c(/C=C/c4ccc(CN5C[C@@H](C)O[C@@H](C)C5)cc4)n[nH]c3c1)C(=O)N2 | > 100 µM | 39.1 µM | 38.1 µM | > 100 µM | 20.6 µM | > 59.7 µM | > 100 µM | 12.1 µM | 45.6 µM | 18.5 µM | 2.86 µM | 5.34 µM | 6.2 µM | 8.81 µM | 3.25 µM | 4.18 µM | 8.28 µM | 1.77 µM | 5.14 µM | 4.19 µM |
| O=C(Cn1c(=O)c(-c2ccccc2)nc2ccccc21)c1ccc(Cl)cc1 | > 100 µM | 65 µM | > 100 µM | > 100 µM | > 100 µM | > 100 µM | > 100 µM | > 100 µM | > 100 µM | > 100 µM | 38.6 µM | 27.2 µM | 42.5 µM | 33.4 µM | > 100 µM | 99.5 µM | > 100 µM | > 100 µM | 37.6 µM | 46.6 µM |
| CCOC(=O)C1=C(C)NC2SC(=O)/C(=C\c3ccccc3Cl)N2C1c1ccccc1 (stereo not drawn) | > 100 µM | > 100 µM | > 100 µM | > 100 µM | > 100 µM | > 100 µM | > 100 µM | > 100 µM | > 100 µM | > 100 µM | > 100 µM | > 100 µM | > 100 µM | > 100 µM | > 100 µM | > 100 µM | > 100 µM | > 100 µM | > 100 µM | > 100 µM |
| N=CCCN(CCC=N)c1ccc(/C=C2\CN(NC(=O)c3ccc(Cl)cc3)C(c3ccccc3)=N2)cc1 | > 100 µM | > 100 µM | > 100 µM | > 100 µM | > 100 µM | > 100 µM | > 100 µM | > 100 µM | 76.1 µM | > 100 µM | – | – | – | – | – | – | – | – | – | – |
| Cc1cc(=O)n(-c2ccccc2)c(=O)o1 | > 100 µM | > 100 µM | > 100 µM | > 100 µM | > 100 µM | > 100 µM | > 100 µM | > 100 µM | > 100 µM | > 100 µM | – | – | – | – | – | – | – | – | – | – |
| O=C(CC(=O)c1ccc([N+](=O)[O-])cc1)C(=O)Nc1nccs1 | > 100 µM | > 100 µM | > 100 µM | > 100 µM | > 100 µM | > 100 µM | > 100 µM | > 100 µM | > 100 µM | > 100 µM | – | – | – | – | – | – | – | – | – | – |
| CC1(C)C(c2ccccc2)C12CCC1(C2=O)C(c2ccccc2)C1(C)C (stereo not drawn) | 39 µM | 31.6 µM | 78.3 µM | 60.5 µM | 75.5 µM | 34.4 µM | 37 µM | 33.6 µM | 34.9 µM | 43.5 µM | – | – | – | – | – | – | – | – | – | – |
| CN(Cc1cnc(N)nc1N)c1ccc(C(=O)O)cc1 | > 100 µM | > 100 µM | > 100 µM | > 100 µM | > 100 µM | > 100 µM | > 100 µM | > 100 µM | > 100 µM | > 100 µM | > 100 µM | > 100 µM | > 100 µM | > 100 µM | > 100 µM | > 100 µM | > 100 µM | > 100 µM | > 100 µM | > 100 µM |
| NC(C/[N+]([O-])=N/O)C(=O)O (stereo not drawn) | > 500 µM | > 100 µM and 209 µM | > 500 µM | > 100 µM and 92.7 µM | > 459 µM | > 100 µM and 302 µM | > 100 µM and 359 µM | – | > 500 µM | > 100 µM and 342 µM | 2.98 µM | > 91.7 µM and 71.4 µM and 33.4 µM | > 47.8 µM and > 100 µM and 24.5 µM | 19.4 µM and 9.42 µM and 4.9 µM | 28.9 µM and 37.5 µM and 24.4 µM | – | 115 µM | 1.01 µM and 2.07 µM and 0.954 µM | 0.772 µM and 3.82 µM and 0.713 µM | 20.1 µM and 44.5 µM and 13 µM |
| O=S1CSCS1 (stereo not drawn) | > 100 µM | > 100 µM | > 100 µM | > 100 µM | > 100 µM | > 100 µM | > 100 µM | > 100 µM | > 100 µM | > 100 µM | – | – | – | – | – | – | – | – | – | – |
